Legend:
Format in all cases: in vivo, human
[1] = test system: inflammatory and nodular lesions and comedones (acne in patients); experiment: Investigator Global Assessment (IGA) score of the appearance of inflammatory and nodular lesions and comedones; settings: score of 1 to 10, 10 indicating the most improvement
Experimental: (§1) Thirty-five patients (13-55 years of age) were enrolled in a placebo-controlled study. Twenty-seven patients were treated with oral administration of a capsule containing the ingredients of Formula 1 and eight patients were treated with a placebo capsule containing only doxycycline hyclate (50 mg). Patients received Formula 1 or placebo twice daily for twelve weeks. The number of comedones (“blackheads”) and nodular and inflammatory lesions (>2 mm in diameter) were counted on the face of each patient at baseline and at two weeks, six weeks and twelve weeks post-treatment.
Next, an Investigator Global Assessment (IGA) score measuring the improvement of the appearance of inflammatory and nodular lesions and comedones was determined for each patient at baseline and 2 weeks and 6 weeks post-treatment. For this assessment the investigators were asked to evaluate whether their patient's lesions and comedones improved using a score of 1 to 10 with 10 indicating the most improvement.

[2] = test system: porphyrins, a measure of bacteria in pores; experiment: Visia complexion analysis: average number of porphyrins
Experimental: Thirty-five patients (13-55 years of age) were enrolled in a placebo-controlled study. Twenty-seven patients were treated with oral administration of a capsule containing the ingredients of Formula 1 and eight patients were treated with a placebo capsule containing only doxycycline hyclate (50 mg). Patients received Formula 1 or placebo twice daily for twelve weeks. The number of comedones (“blackheads”) and nodular and inflammatory lesions (>2 mm in diameter) were counted on the face of each patient at baseline and at two weeks, six weeks and twelve weeks post-treatment. […] Lastly, the Visia™ complexion analysis system was used to assess the average number of porphyrins, a measure of bacteria in pores, in each patient.

[3] = test system: patients; experiment: Untoward effects in the placebo-controlled patient study; settings: twice daily for twelve weeks, oral capsule
Experimental: as §1

[4] = test system: comedones and nodular and inflammatory lesions (acne in patients); experiment: Placebo-controlled study in acne patients: counts of comedones and nodular and inflammatory lesions on the face
Experimental: as §1
The results are shown as the change at baseline and the percent change from baseline for each outcome measure after twelve weeks of treatment. Data are reported as mean values (±standard error of the mean, SEM) for each outcome measure. The results for ‘total lesions’ includes both comedones and inflammatory and nodular lesions.

For `C[C@H]1c2cccc(O)c2C(O)=C2C(=O)[C@]3(O)C(O)=C(C(N)=O)C(=O)[C@@H](N(C)C)[C@@H]3[C@@H](O)[C@@H]21` [Placebo, doxycycline hyclate], the “IGA score, baseline” value ([1]; baseline) was 2.3, the “IGA score, six weeks” value ([1]; six weeks) was 2.5 and the “Por (BL), average number of porphyrins” value ([2]; baseline) was 31.6. The “Por (W2), average number of porphyrins” value ([2]; week 2) was 25.8, the “Por (W6), average number of porphyrins” value ([2]; week 6) was 15.7 and the “Por (W12), average number of porphyrins” value ([2]; week 12) was 35.5. For the same compound, the serious untoward effects [3] was “No serious untoward effects”, the “Total Comedones, Change from baseline, %” value ([4]; 12 weeks vs baseline) was −27.4% and the “Total Inflammatory and Nodular Lesions, Change from baseline, %” value ([4]; 12 weeks vs baseline) was −50.9%. The “Total Lesions, Change from baseline, %” value ([4]; 12 weeks vs baseline) was −35.6%, the “reduction of the total number of lesions (comedones and inflammatory and nodular lesions)” value ([4]; after twelve weeks of treatment) was 35.6% and the “reduction of the average number of comedones at twelve weeks compared to baseline” value ([4]; twelve weeks vs baseline) was 27.4%. For the same compound, the “average number of comedones, week 2” value ([4]; week 2) was 29.0 and the “average number of comedones, week 6” value ([4]; week 6) was 11.8.
